This passage reports EC50 results from patent US10913727B2, “Modulators of the integrated stress pathway” (Calico Life Sciences LLC, priority 2016, dated 2021).

Structures are written as SMILES. Where only a bound is given, the exact number is not on record here.

The subject of this experiment is HEK293T cells carrying the ATF4 luciferase reporter. Kind of experiment: ATF4-Luc assay, in vitro model of Vanishing Cell White Matter Disease (VWMD). In kind it is cell-based. To be noted: Homo sapiens, HEK-293T, 1 μg/mL tunicamycin, 7 hours, One Glo luminescence. Summed up: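 Reporter cells were stably generated by retroviral transduction and puromycin selection, then seeded at 30,000 cells/well. Next day, cells received 1 μg/mL tunicamycin with 200 nM test compound for 7 h, and luciferase luminescence was read with a one-step reagent. Values reported as EC50.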
Take `O=C(COc1ccc(Cl)c(F)c1)NC12CC(NC(=O)c3cc(N4CC(O)C4)ccn3)(C1)C2` [Compound 179, N-{3-[2-(4-chloro-3-fluorophenoxy)acetamido]bicyclo[1.1.1]pentan-1-yl}-4-(3-hydroxyazetidin-1-yl)pyridine-2-carboxamide]: the EC50 lay within 0.25 to 1 µM.

As for `O=C(COc1ccc(Cl)c(F)c1)NC12CC(Nc3nccc(-c4ccc(Cl)cc4)n3)(C1)C2` [Compound 370, 2-(4-chloro-3-fluorophenoxy)-N-(3-{[4-(4-chlorophenyl)pyrimidin-2-yl]amino}bicyclo[1.1.1]pentan-1-yl)acetamide], the EC50 is below 0.05 µM.

Consider `CCNC(=O)c1ccc(C(=O)NC23CC(NC(=O)COc4ccc(Cl)c(F)c4)(C2)C3)nc1` [Compound 270, N^2-{3-[2-(4-chloro-3-fluorophenoxy)acetamido]bicyclo[1.1.1]pentan-1-yl}-N^5-ethylpyridine-2,5-dicarboxamide], for which the EC50 is above 2 µM. Consider `Cn1cnc2noc(C(=O)NC34CCC(NC(=O)COc5ccc(Cl)c(F)c5)(CC3)C(O)C4)c21` (stereo not shown) [Compound 412, N-{4-[2-(4-chloro-3-fluorophenoxy)acetamido]-3-hydroxybicyclo[2.2.2]octan-1-yl}-4-methyl-4H-imidazo[4,5-c][1,2]oxazole-3-carboxamide], for which the EC50 is above 2 µM. For `O=C(COc1ccc(Cl)c(F)c1)NC12CCC(NC(=O)c3cc(CO)ccn3)(CC1)C[C@@H]2O` [Compound 680, N-{(3S)-4-[2-(4-chloro-3-fluorophenoxy)acetamido]-3-hydroxybicyclo[2.2.2]octan-1-yl}-4-(hydroxymethyl)pyridine-2-carboxamide], the EC50 is below 0.05 µM. With `O=C(COc1ccc(Cl)c(F)c1)NC12CC(Nc3cccc(-c4ccc(Cl)cc4)n3)(C1)C2` [Compound 398, 2-(4-chloro-3-fluorophenoxy)-N-(3-{[6-(4-chlorophenyl)pyridin-2-yl]amino}bicyclo[1.1.1]pentan-1-yl)acetamide], the EC50 is above 2 µM. As to `Cn1cc(C(=O)NC23CC(NC(=O)COc4ccc(Cl)c(F)c4)(C2)C3)cn1` [Compound 246, N-{3-[2-(4-chloro-3-fluorophenoxy)acetamido]bicyclo[1.1.1]pentan-1-yl}-1-methyl-1H-pyrazole-4-carboxamide], the concentration giving a half-maximal response (EC50) lay in the range of 0.25 to 1 µM. In the case of `Cn1nccc1C(=O)NC12CCC(NC(=O)COc3ccc(Cl)c(F)c3)(CC1)C(O)C2` (stereo not shown) [Compound 602, N-{4-[2-(4-chloro-3-fluorophenoxy)acetamido]-3-hydroxybicyclo[2.2.2]octan-1-yl}-1-methyl-1H-pyrazole-5-carboxamide] it was 0.25 to 1 µM; in that of `Cc1nn(C)c(C(=O)NC23CCC(NC(=O)COc4ccc(Cl)c(F)c4)(CC2)C(O)C3)c1F` (stereo not shown) [Compound 517, N-{4-[2-(4-chloro-3-fluorophenoxy)acetamido]-3-hydroxybicyclo[2.2.2]octan-1-yl}-4-fluoro-1,3-dimethyl-1H-pyrazole-5-carboxamide], 0.05 to 0.25 µM. `Cc1cc(C(=O)NC23CCC(NC(=O)COc4ccc(Cl)c(Cl)c4)(C2)C3)nn1-c1ccc(Cl)cc1` [Compound 111, 1-(4-chlorophenyl)-N-{4-[2-(3,4-dichlorophenoxy)acetamido]bicyclo[2.1.1]-hexan-1-yl}5-methyl-1H-pyrazole-3-carboxamide]: the EC50 was above 2 µM.

For `O=C(COc1ccc(Cl)c(Cl)c1)NC12CC(NC(=O)c3cc(OC(F)F)ccn3)(C1)C2` [Compound 716, N-{3-[2-(3,4-dichlorophenoxy)acetamido]bicyclo[1.1.1]pentan-1-yl}-4-(difluoromethoxy)pyridine-2-carboxamide], the EC50 lay within 0.25 to 1 µM. Next, `CCc1cc(C(=O)NC23CC(NC(=O)COc4ccc(Cl)c(F)c4)(C2)C3)[nH]n1` [Compound 275, N-{3-[2-(4-chloro-3-fluorophenoxy)acetamido]bicyclo[1.1.1]pentan-1-yl}-3-ethyl-1H-pyrazole-5-carboxamide]: 0.05 to 0.25 µM; `COCCOc1ccc(C(=O)NC23CC(NC(=O)COc4ccc(Cl)c(F)c4)(C2)C3)nc1` [Compound 299, N-{3-[2-(4-chloro-3-fluorophenoxy)acetamido]bicyclo[1.1.1]pentan-1-yl}-5-(2-methoxyethoxy)pyridine-2-carboxamide]: 0.25 to 1 µM; `CC(C)(O)c1cccc(C(=O)NC23CC(NC(=O)COc4ccc(Cl)c(F)c4)(C2)C3)c1` [Compound 386, N-{3-[2-(4-chloro-3-fluorophenoxy)acetamido]bicyclo[1.1.1]pentan-1-yl}-3-(2-hydroxypropan-2-yl)benzamide]: above 2 µM. On to `O=C(COc1ccc(Cl)c(F)c1)NC12CCC(NC(=O)c3ccc(F)cc3)(CC1)[C@@H](O)C2` [Compound 489, N-{(2S)-4-[2-(4-chloro-3-fluorophenoxy)acetamido]-2-hydroxybicyclo[2.2.2]octan-1-yl}-4-fluorobenzamide], for which the EC50 was in the range of 0.05 to 0.25 µM. As for `CCCc1nc(C(=O)NC23CCC(NC(=O)COc4ccc(Cl)c(F)c4)(CC2)C(O)C3)cs1` (stereo not shown) [Compound 502, N-{4-[2-(4-chloro-3-fluorophenoxy)acetamido]-3-hydroxybicyclo[2.2.2]octan-1-yl}-2-propyl-1,3-thiazole-4-carboxamide], the EC50 is below 0.05 µM. On to `Cc1noc(C)c1C(=O)NC12CCC(NC(=O)COc3ccc(Cl)c(F)c3)(CC1)CC2O` (stereo not shown) [Compound 216, N-{4-[2-(4-chloro-3-fluorophenoxy)acetamido]-2-hydroxybicyclo[2.2.2]octan-1-yl}-3,5-dimethyl-1,2-oxazole-4-carboxamide], for which the EC50 was above 2 µM. On to `Cc1cc(C(=O)N(C)C23CCC(NC(=O)COc4ccc(Cl)c(F)c4)(CC2)[C@@H](O)C3)on1` [Compound 706, N-{(3S)-4-[2-(4-chloro-3-fluorophenoxy)acetamido]-3-hydroxybicyclo[2.2.2]octan-1-yl}-N,3-dimethyl-1,2-oxazole-5-carboxamide], for which the EC50 is below 0.05 µM. Consider `O=C(COc1ccc(Cl)c(F)c1)NC12CC(Nc3nccn4cnnc34)(C1)C2` [Compound 445, 2-(4-chloro-3-fluorophenoxy)-N-{3-[([1,2,4]triazolo[4,3-a]pyrazin-8-yl)amino]bicyclo[1.1.1]pentan-1-yl}acetamide], for which the EC50 is above 2 µM. In the case of `O=C(COc1ccc(Cl)c(F)c1)NC12CCC(NC(=O)c3ccc(OC(F)(F)F)cn3)(CC1)C[C@@H]2O` [Compound 682, N-{(3S)-4-[2-(4-chloro-3-fluorophenoxy)acetamido]-3-hydroxybicyclo[2.2.2]octan-1-yl}-5-(trifluoromethoxy)pyridine-2-carboxamide] it was below 0.05 µM; in that of `O=C(COc1ccc(Cl)c(F)c1)NC12CC(NC(=O)c3ccc4cnccc4n3)(C1)C2` [Compound 659, N-{3-[2-(4-chloro-3-fluorophenoxy)acetamido]bicyclo[1.1.1]pentan-1-yl}-1,6-naphthyridine-2-carboxamide], 0.05 to 0.25 µM; in that of `CCc1cc(C(=O)NC23CCC(NC(=O)COc4ccc(Cl)c(F)c4)(CC2)[C@@H](O)C3)no1` [Compound 668, N-{(3S)-4-[2-(4-chloro-3-fluorophenoxy)acetamido]-3-hydroxybicyclo[2.2.2]octan-1-yl}-5-ethyl-1,2-oxazole-3-carboxamide], below 0.05 µM. For `CC(=O)N1CCC(c2ncc(C(=O)NC34CC(NC(=O)COc5ccc(Cl)c(F)c5)(C3)C4)o2)CC1` [Compound 148, 2-(1-acetylpiperidin-4-yl)-N-{3-[2-(4-chloro-3-fluorophenoxy)acetamido]bicyclo[1.1.1]pentan-1-yl}-1,3-oxazole-5-carboxamide], the EC50 was above 2 µM.

With `Cc1ncc(C(=O)NC23CC(NC(=O)COc4ccc(Cl)c(F)c4)(C2)C3)cn1` [Compound 121, N-{3-[2-(4-chloro-3-fluorophenoxy)acetamido]bicyclo[1.1.1]pentan-1-yl}-2-methylpyrimidine-5-carboxamide], the EC50 lay in the range of 1 to 2 µM. On to `O=C(COc1ccc(Cl)c(F)c1)NC12CC(Nc3nccc(-c4ccccc4)n3)(C1)C2` [Compound 363, 2-(4-chloro-3-fluorophenoxy)-N-{3-[(4-phenylpyrimidin-2-yl)amino]bicyclo[1.1.1]pentan-1-yl}acetamide], for which the EC50 fell in the range of 1 to 2 µM.

`Cc1cc2c(C(=O)NC34CC(NC(=O)COc5ccc(Cl)c(F)c5)(C3)C4)nccn2n1` [Compound 561, N-{3-[2-(4-chloro-3-fluorophenoxy)acetamido]bicyclo[1.1.1]pentan-1-yl}-2-methylpyrazolo[1,5-a]pyrazine-4-carboxamide]: the EC50 was above 2 µM. In the case of `O=C(COc1ccc(Cl)c(F)c1)NC12CC(NC(=O)c3cc(C4CC4)on3)(C1)C2` [Compound 256, N-{3-[2-(4-chloro-3-fluorophenoxy)acetamido]bicyclo[1.1.1]pentan-1-yl}-5-cyclopropyl-1,2-oxazole-3-carboxamide], the EC50 fell in the range of 0.25 to 1 µM.

Consider `CC(C)c1cccc(C(=O)NC23CCC(NC(=O)COc4ccc(Cl)c(F)c4)(CC2)C(O)C3)n1` (stereo not shown) [Compound 911, N-{4-[2-(4-chloro-3-fluorophenoxy)acetamido]-3-hydroxybicyclo[2.2.2]octan-1-yl}-6-(propan-2-yl)pyridine-2-carboxamide], for which the EC50 lay in the range of 0.25 to 1 µM.

Consider `Cn1cc(C(=O)NC23CC(NC(=O)COc4ccc(Cl)c(F)c4)(C2)C3)ccc1=O` [Compound 818, N-{3-[2-(4-chloro-3-fluorophenoxy)acetamido]bicyclo[1.1.1]pentan-1-yl}-1-methyl-6-oxo-1,6-dihydropyridine-3-carboxamide], for which the EC50 was above 2 µM. In the case of `CC(C)c1nc(C(=O)NC23CC(NC(=O)COc4ccc(Cl)c(F)c4)(C2)C3)co1` [Compound 245, N-{3-[2-(4-chloro-3-fluorophenoxy)acetamido]bicyclo[1.1.1]pentan-1-yl}-2-(propan-2-yl)-1,3-oxazole-4-carboxamide] it was 0.25 to 1 µM; in that of `O=C(COc1ccc(Cl)c(F)c1)NC12CC(NC(=O)c3ccc(OC(F)F)cn3)(C1)C2` [Compound 152, N-{3-[2-(4-chloro-3-fluorophenoxy)acetamido]bicyclo[1.1.1]pentan-1-yl}-5-(difluoromethoxy)pyridine-2-carboxamide], 0.05 to 0.25 µM.

One may read the EC50 as the concentration at which the effect is half-maximal.
